Test results taken from patent US10118935B2, “Melampomagnolide B dimers” (priority 2014, dated 2018).

Assays:
[1] = system: HS 578T; assay: NCI 60 cell line five dose, Breast Cancer; conditions: HS578T
[2] = system: MDA-MB-435; assay: NCI 60 cell line five dose, Melanoma
[3] = system: SK-MEL-5; assay: NCI 60 cell line five dose, Melanoma
[4] = system: A498; assay: NCI 60 cell line five dose, Renal Cancer
[5] = system: NCI-H226; assay: NCI 60 cell line five dose, Non-Small Cell Lung Cancer
[6] = system: LOX IMVI; assay: NCI 60 cell line five dose, Melanoma
[7] = system: CCRF-CEM; assay: NCI 60 cell line five dose, Leukemia
[8] = system: SK-MEL-2; assay: NCI 60 cell line five dose, Melanoma
[9] = system: MOLT-4; assay: NCI 60 cell line five dose, Leukemia
[10] = system: A549/ATCC; assay: NCI 60 cell line five dose, Non-Small Cell Lung Cancer
[11] = system: MCF7; assay: NCI 60 cell line five dose, Breast Cancer
[12] = system: ACHN; assay: NCI 60 cell line five dose, Renal Cancer
[13] = system: PC-3; assay: NCI 60 cell line five dose, Prostate Cancer
[14] = system: UACC-257; assay: NCI 60 cell line five dose, Melanoma
[15] = system: CAKI-1; assay: NCI 60 cell line five dose, Renal Cancer
[16] = system: HT29; assay: NCI 60 cell line five dose, Colon Cancer
[17] = system: SR; assay: NCI 60 cell line five dose, Leukemia
[18] = system: SNB-75; assay: NCI 60 cell line five dose, CNS Cancer
[19] = system: OVCAR-4; assay: NCI 60 cell line five dose, Ovarian Cancer
[20] = system: NCI-H460; assay: NCI 60 cell line five dose, Non-Small Cell Lung Cancer
[21] = system: M9ENL AML cell lines; conditions: read-out: LC50; M9ENL AML cell lines; after 24 hours of drug exposure
[22] = system: T-47D; assay: NCI 60 cell line five dose, Breast Cancer

C=C1C(=O)O[C@H]2[C@H]1CC/C(COC(=O)NCCCCCCCCNC(=O)OC/C1=C/CC[C@@]3(C)O[C@H]3[C@H]3OC(=O)C(=C)[C@@H]3CC1)=C\CC[C@@]1(C)O[C@@H]21 [JVM 3-62, bis(((1aR,7aS, 10aS, 10bS, E)-1a-Methyl-8-methylene-9-oxo-1a,2,3,6,7,7a,8,9,10a,10b-decahydrooxireno[2′,3′:9,10]cyclodeca[1,2-b]furan-5-yl)methyl)octane-1,8-diyldicarbamate]
Percent Growth ([1]; Log10 Concentration −4.0): −26%
Percent Growth ([1]; Log10 Concentration −5.0): −5%
Percent Growth ([1]; Log10 Concentration −6.0): 54%
Percent Growth ([1]; Log10 Concentration −7.0): 90%
Percent Growth ([1]; Log10 Concentration −8.0): 94%
GI50 ([1]; molar): 1170 nM
TGI ([1]; molar): 8.25E−6
CC50 ([1]; read-out: LC50, molar): > 100000 nM
Percent Growth ([2]; Log10 Concentration −4.0): −86%
Percent Growth ([2]; Log10 Concentration −5.0): −74%
Percent Growth ([2]; Log10 Concentration −6.0): −18%
Percent Growth ([2]; Log10 Concentration −7.0): 92%
Percent Growth ([2]; Log10 Concentration −8.0): 91%
GI50 ([2]; molar): 241 nM
TGI ([2]; molar): 6.86E−7
CC50 ([2]; read-out: LC50, molar): 3740 nM
Percent Growth ([3]; Log10 Concentration −4.0): −87%
Percent Growth ([3]; Log10 Concentration −5.0): −89%
Percent Growth ([3]; Log10 Concentration −6.0): 63%
Percent Growth ([3]; Log10 Concentration −7.0): 95%
Percent Growth ([3]; Log10 Concentration −8.0): 99%
GI50 ([3]; molar): 1210 nM
TGI ([3]; molar): 2.59E−6
CC50 ([3]; read-out: LC50, SK-MEL-6, molar): 5530 nM
Percent Growth ([4]; Log10 Concentration −4.0): −83%
Percent Growth ([4]; Log10 Concentration −5.0): −91%
Percent Growth ([4]; Log10 Concentration −6.0): 91%
Percent Growth ([4]; Log10 Concentration −7.0): 104%
Percent Growth ([4]; Log10 Concentration −8.0): 94%
GI50 ([4]; molar): 1690 nM
TGI ([4]; molar): 3.14E−6
CC50 ([4]; read-out: LC50, molar): 5830 nM
Percent Growth ([5]; Log10 Concentration −4.0): −57%
Percent Growth ([5]; Log10 Concentration −5.0): −46%
Percent Growth ([5]; Log10 Concentration −6.0): 83%
Percent Growth ([5]; Log10 Concentration −7.0): 89%
Percent Growth ([5]; Log10 Concentration −8.0): 93%
GI50 ([5]; molar): 1810 nM
TGI ([5]; molar): 4.39E−6
Percent Growth ([6]; Log10 Concentration −4.0): −81%
Percent Growth ([6]; Log10 Concentration −5.0): −90%
Percent Growth ([6]; Log10 Concentration −6.0): −69%
Percent Growth ([6]; Log10 Concentration −7.0): 90%
Percent Growth ([6]; Log10 Concentration −8.0): 98%
GI50 ([6]; molar): 178 nM
CC50 ([6]; read-out: LC50, molar): 761 nM
Percent Growth ([7]; Log10 Concentration −4.0): −44%
Percent Growth ([7]; Log10 Concentration −5.0): −45%
Percent Growth ([7]; Log10 Concentration −6.0): −8%
Percent Growth ([7]; Log10 Concentration −7.0): 89%
Percent Growth ([7]; Log10 Concentration −8.0): 99%
GI50 ([7]; molar): 255 nM
CC50 ([7]; read-out: LC50, molar): > 100000 nM
Percent Growth ([8]; Log10 Concentration −4.0): −68%
Percent Growth ([8]; Log10 Concentration −5.0): −45%
Percent Growth ([8]; Log10 Concentration −6.0): 36%
Percent Growth ([8]; Log10 Concentration −7.0): 100%
Percent Growth ([8]; Log10 Concentration −8.0): 92%
GI50 ([8]; molar): 601 nM
TGI ([8]; molar): 2.79E−6
Percent Growth ([9]; Log10 Concentration −4.0): −34%
Percent Growth ([9]; Log10 Concentration −5.0): −27%
Percent Growth ([9]; Log10 Concentration −6.0): 2%
Percent Growth ([9]; Log10 Concentration −7.0): 101%
Percent Growth ([9]; Log10 Concentration −8.0): 100%
GI50 ([9]; molar): 330 nM
TGI ([9]; molar): 1.18E−6
CC50 ([9]; read-out: LC50, molar): > 100000 nM
Percent Growth ([10]; Log10 Concentration −4.0): −84%
Percent Growth ([10]; Log10 Concentration −5.0): −72%
Percent Growth ([10]; Log10 Concentration −6.0): 87%
Percent Growth ([10]; Log10 Concentration −7.0): 96%
Percent Growth ([10]; Log10 Concentration −8.0): 96%
GI50 ([10]; molar): 1700 nM
TGI ([10]; molar): 3.51E−6
CC50 ([10]; read-out: LC50, molar): 7260 nM
Percent Growth ([11]; Log10 Concentration −4.0): −54%
Percent Growth ([11]; Log10 Concentration −5.0): −75%
Percent Growth ([11]; Log10 Concentration −6.0): −7%
Percent Growth ([11]; Log10 Concentration −7.0): 80%
Percent Growth ([11]; Log10 Concentration −8.0): 89%
GI50 ([11]; molar): 221 nM
TGI ([11]; molar): 8.33E−7
CC50 ([11]; read-out: LC50, molar): 4300 nM
Percent Growth ([12]; Log10 Concentration −4.0): −78%
Percent Growth ([12]; Log10 Concentration −5.0): −84%
Percent Growth ([12]; Log10 Concentration −6.0): −31%
Percent Growth ([12]; Log10 Concentration −7.0): 100%
Percent Growth ([12]; Log10 Concentration −8.0): 98%
GI50 ([12]; molar): 268 nM
TGI ([12]; molar): 6.62E−7
CC50 ([12]; read-out: LC50, molar): 2850 nM
Percent Growth ([13]; Log10 Concentration −4.0): −91%
Percent Growth ([13]; Log10 Concentration −5.0): −78%
Percent Growth ([13]; Log10 Concentration −6.0): 21%
Percent Growth ([13]; Log10 Concentration −7.0): 91%
Percent Growth ([13]; Log10 Concentration −8.0): 91%
GI50 ([13]; molar): 385 nM
TGI ([13]; molar): 1.63E−6
CC50 ([13]; read-out: LC50, molar): 5200 nM
Percent Growth ([14]; Log10 Concentration −4.0): −55%
Percent Growth ([14]; Log10 Concentration −5.0): −57%
Percent Growth ([14]; Log10 Concentration −6.0): 47%
Percent Growth ([14]; Log10 Concentration −7.0): 89%
Percent Growth ([14]; Log10 Concentration −8.0): 97%
GI50 ([14]; molar): 848 nM
TGI ([14]; molar): 2.82E−6
CC50 ([14]; read-out: LC50, molar): 8510 nM
Percent Growth ([15]; Log10 Concentration −4.0): −99%
Percent Growth ([15]; Log10 Concentration −5.0): −93%
Percent Growth ([15]; Log10 Concentration −6.0): 41%
Percent Growth ([15]; Log10 Concentration −7.0): 92%
Percent Growth ([15]; Log10 Concentration −8.0): 94%
GI50 ([15]; molar): 557 nM
CC50 ([15]; read-out: LC50, molar): 4790 nM
Percent Growth ([16]; Log10 Concentration −4.0): −84%
Percent Growth ([16]; Log10 Concentration −5.0): −80%
Percent Growth ([16]; Log10 Concentration −6.0): −33%
Percent Growth ([16]; Log10 Concentration −7.0): 97%
Percent Growth ([16]; Log10 Concentration −8.0): 100%
GI50 ([16]; molar): 228 nM
CC50 ([16]; read-out: LC50, molar): 2270 nM
Percent Growth ([17]; Log10 Concentration −4.0): −31%
Percent Growth ([17]; Log10 Concentration −5.0): −26%
Percent Growth ([17]; Log10 Concentration −6.0): 6%
Percent Growth ([17]; Log10 Concentration −7.0): 95%
Percent Growth ([17]; Log10 Concentration −8.0): 98%
GI50 ([17]; molar): 317 nM
CC50 ([17]; read-out: LC50, molar): > 100000 nM
Percent Growth ([18]; Log10 Concentration −4.0): −100%
Percent Growth ([18]; Log10 Concentration −5.0): −51%
Percent Growth ([18]; Log10 Concentration −6.0): 61%
Percent Growth ([18]; Log10 Concentration −7.0): 78%
Percent Growth ([18]; Log10 Concentration −8.0): 72%
GI50 ([18]; molar): 1250 nM
CC50 ([18]; read-out: LC50, molar): 9840 nM
Percent Growth ([19]; Log10 Concentration −4.0): −89%
Percent Growth ([19]; Log10 Concentration −5.0): −92%
Percent Growth ([19]; Log10 Concentration −6.0): 34%
Percent Growth ([19]; Log10 Concentration −7.0): 91%
Percent Growth ([19]; Log10 Concentration −8.0): 90%
GI50 ([19]; molar): 521 nM
CC50 ([19]; read-out: LC50, molar): 4630 nM
Percent Growth ([20]; Log10 Concentration −4.0): −64%
Percent Growth ([20]; Log10 Concentration −5.0): −56%
Percent Growth ([20]; Log10 Concentration −6.0): 84%
Percent Growth ([20]; Log10 Concentration −7.0): 102%
Percent Growth ([20]; Log10 Concentration −8.0): 104%
GI50 ([20]; molar): 1750 nM
TGI ([20]; molar): 3.98E−6
CC50 ([20]; read-out: LC50, molar): 9020 nM
CC50 [21]: 1000 nM
Percent Growth ([22]; Log10 Concentration −4.0): −49%
Percent Growth ([22]; Log10 Concentration −5.0): −46%
Percent Growth ([22]; Log10 Concentration −6.0): −4%
Percent Growth ([22]; Log10 Concentration −7.0): 100%
Percent Growth ([22]; Log10 Concentration −8.0): 92%
GI50 ([22]; molar): 323 nM
TGI ([22]; molar): 9.15E−7
CC50 ([22]; read-out: LC50, molar): > 100000 nM
